Source: ChEMBL document CHEMBL4330089, “Exploring structural properties of potent human carbonic anhydrase inhibitors bearing a 4-(cycloalkylamino-1-carbonyl)benzenesulfonamide moiety” (Eur J Med Chem, 2019)
Activity calls are given as the source filed them. No cut-off for these calls is given here.

How the values were obtained:
Carbonic anhydrase 9 = Carbonic anhydrase 9 (Homo sapiens, UniProt Q16790)
Description: Inhibition of human carbonic anhydrase-9 catalytic domain assessed as reduction in CO2 hydration after 15 mins by phenol red dye based stopped flow assay

[1] = Toxicity in mouse assessed as sedation at 20 to 30 mg/kg; assay type: organism-based; settings: in vivo
Mus musculus [2] = experiment: Anticonvulsant activity in ip dosed mouse assessed as reduction in PTZ-induced seizures pretreated for 30 mins followed by PTZ addition; assay type: functional, organism-based
[3] = Toxicity in mouse in mouse model of PTZ-induced seizures assessed as clonus occurance at 20 to 30 mg/kg, ip pretreated for 30 mins followed by PTZ addition; assay type: organism-based; settings: in vivo
Mus musculus [4] = organism: Mus musculus; experiment: animal or person
Description: Anticonvulsant activity in mouse assessed as reduction in PTZ-induced seizures

SMILES | Ki (Carbonic anhydrase 9) [nM] | other results
NS(=O)(=O)c1ccc(C(=O)N2CCC(O)(c3ccc(Cl)cc3)CC2)cc1 | 24.9 | –
CC1CCCCN1C(=O)c1ccc(S(N)(=O)=O)cc1 (centres undefined) | 2.6 | –
NS(=O)(=O)c1ccc(C(=O)N2CCN(Cc3ccc(F)cc3)CC2)cc1 | 45.1 | Activity [1]: Toxic; Activity (Mus musculus [2]): Active; Activity [3]: Toxic
CC1CCCN(C(=O)c2ccc(S(N)(=O)=O)cc2)C1 (centres undefined) | 2.4 | –
NS(=O)(=O)c1ccc(C(=O)N2CCC(O)(c3ccc(Br)cc3)CC2)cc1 | 4.7 | Activity [1]: Toxic; Activity (Mus musculus [2]): Active; Activity [3]: Toxic
CC1(C)O[C@@H]2[C@@H](CO[C@@]3(COS(N)(=O)=O)OC(C)(C)O[C@@H]23)O1 [TOPIRAMATE] | – | ED50 (Mus musculus [4]): 22 mg/kg
NS(=O)(=O)c1ccc(C(=O)N2CCC(c3ccccc3)CC2)cc1 | 3.3 | Activity [1]: Toxic; Activity (Mus musculus [2]): Active; Activity [3]: Toxic
NS(=O)(=O)c1ccc(C(=O)N2CCCCC2)cc1 | 3.1 | –
NS(=O)(=O)c1ccc(C(=O)N2CCCCCC2)cc1 | 16.8 | –
CC(=O)C1(c2ccccc2)CCN(C(=O)c2ccc(S(N)(=O)=O)cc2)CC1 | 3.1 | –
NS(=O)(=O)c1ccc(C(=O)N2CCN(c3ccccc3)CC2)cc1 | 4.8 | –
CC1CCN(C(=O)c2ccc(S(N)(=O)=O)cc2)CC1 | 3.4 | –
NS(=O)(=O)c1ccc(C(=O)N2CCN(Cc3ccccc3)CC2)cc1 | 33.1 | –
NS(=O)(=O)c1ccc(C(=O)N2CCN(C(c3ccccc3)c3ccccc3)CC2)cc1 | 28.2 | Activity [1]: Toxic; Activity (Mus musculus [2]): Active; Activity [3]: Toxic
NS(=O)(=O)c1ccc(C(=O)N2CCC(Cc3ccccc3)CC2)cc1 | 7 | –
N#CC1(c2ccccc2)CCN(C(=O)c2ccc(S(N)(=O)=O)cc2)CC1 | 18.4 | –
NS(=O)(=O)c1ccc(C(=O)N2CCC(O)(c3ccccc3)CC2)cc1 | 22.6 | –
